Measurements as given in patent publication US9206156B2, “Substituted indole derivatives” (GRÜNENTHAL GMBH, priority 2008, dated 2015).

Columns and labels:
ORL1 receptor = biological target: T1, ORL1 receptor (Homo sapiens, UniProt P41146); assay: ORL1 receptor binding assay with 3H-nociceptin/orphanin FQ (WGA-SPA beads); conditions: c=1 μM test substance; 0.5 nM 3H-nociceptin/orphanin FQ; membranes of recombinant CHO-ORL1 cells
T1 construct: expressed in transfected cells; host or cells: CHO (recombinant CHO-ORL1 cells), membranes
T1 sequence (P41146 whole entry): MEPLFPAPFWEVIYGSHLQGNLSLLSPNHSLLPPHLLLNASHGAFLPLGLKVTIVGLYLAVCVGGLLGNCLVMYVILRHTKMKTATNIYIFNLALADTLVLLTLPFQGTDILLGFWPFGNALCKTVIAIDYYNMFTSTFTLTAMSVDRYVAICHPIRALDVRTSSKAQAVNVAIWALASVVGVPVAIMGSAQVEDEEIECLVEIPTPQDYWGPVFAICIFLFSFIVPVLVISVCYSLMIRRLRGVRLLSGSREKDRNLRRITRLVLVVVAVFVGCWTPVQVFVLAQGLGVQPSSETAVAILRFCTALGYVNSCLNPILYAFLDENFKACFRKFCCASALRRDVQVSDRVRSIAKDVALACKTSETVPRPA
Experimental: Measurement of ORL1 Binding
The cyclohexane derivatives having the general formula I were investigated in a receptor binding assay with ^3H-nociceptin/orphanin FQ with membranes of recombinant CHO—ORL1 cells. This test system was conducted in accordance with the method described by Ardati et al. (Mol. Pharmacol., 51, 1997, p. 816-824). The concentration of ^3H-nociceptin/orphanin FQ in these tests was 0.5 nM. The binding assays were carried out with 20 μg amounts of membrane protein per 200 μl batch in 50 mM Hepes, pH 7.4, 10 mM MgCl2 and 1 mM EDTA. The binding to the ORL1 receptor was determined using 1 mg amounts of WGA-SPA beads (Amersham-Pharmacia, Freiburg, Germany), by incubation of the batch for one hour at room temperature and subsequent measurement in a Trilux scintillation counter (Wallac, Finland). The affinity is given in Table 1 as the nanomolar Ki value or in % inhibition at c=1 μM.

human μ-opiate receptor = biological target: T2, human μ-opiate receptor (Homo sapiens, UniProt P35372); assay: μ-opiate receptor binding assay with [3H] naloxone (WGA-SPA beads); conditions: 1 μmol/l test substance; 1 nmol/l [3H] naloxone; CHO-K1 cell membranes expressing human μ-opiate receptor
T2 construct: purchased NEN, Zaventem, Belgium RB-HOM; host or cells: CHO-K1 cells (membrane preparation)
T2 sequence (P35372 whole entry): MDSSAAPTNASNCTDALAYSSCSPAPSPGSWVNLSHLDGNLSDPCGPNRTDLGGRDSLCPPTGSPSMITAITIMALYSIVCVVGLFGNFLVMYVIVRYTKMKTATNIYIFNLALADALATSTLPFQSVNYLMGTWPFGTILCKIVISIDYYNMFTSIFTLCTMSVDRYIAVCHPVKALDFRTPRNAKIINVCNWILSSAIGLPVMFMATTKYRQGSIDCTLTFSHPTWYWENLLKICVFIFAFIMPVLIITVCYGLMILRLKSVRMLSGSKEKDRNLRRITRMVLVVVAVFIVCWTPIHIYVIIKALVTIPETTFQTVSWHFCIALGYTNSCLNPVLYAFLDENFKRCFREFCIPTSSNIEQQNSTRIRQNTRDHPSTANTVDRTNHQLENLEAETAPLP
Experimental: The receptor affinity to the human μ-opiate receptor was determined in a homogeneous batch in microtitre plates. To this end, dilution series of the substituted indole derivative to be tested were incubated for 90 minutes at room temperature with a receptor membrane preparation (15-40 μg protein per 250 μl incubation batch) of CHO-K1 cells, which express the human μ-opiate receptor (RB—HOM receptor membrane preparation from NEN, Zaventem, Belgium), in the presence of 1 nmol/l of the radioactive ligand [^3H] naloxone (NET719, NEN, Zaventem, Belgium) and 1 mg of WGA-SPA beads (wheat germ agglutinin SPA beads from Amersham/Pharmacia, Freiburg, Germany) in a total volume of 250 μl. 50 mmol/l tris-HCl supplemented with 0.05 wt. % sodium azide and 0.06 wt. % bovine serum albumin were used as the incubation buffer. In order to determine the non-specific binding, 25 μmol/l of naloxone were also added. At the end of the ninety-minute incubation period the microtitre plates were centrifuged for 20 minutes at 1000 g and the radioactivity was measured in a β counter (Microbeta-Trilux, PerkinElmer Wallac, Freiburg, Germany). The percentage displacement of the radioactive ligand from its binding to the human μ-opiate receptor was determined at a test substance concentration of 1 μmol/l and stated as the percentage inhibition (% inhibition) of the specific binding. In some cases the percentage displacement due to differing concentrations of the compounds having the general formula I to be tested was used to calculate the IC50 inhibition concentrations which bring about a 50-percent displacement of the radioactive ligand. Ki values for the test substances were obtained by extrapolation using the Cheng-Prusoff equation.

| Structure (SMILES) | inhibition at 1 µM (ORL1 receptor) [%] | inhibition at 1 µM (human μ-opiate receptor) [%] |
| --- | --- | --- |
| CC(CC(=O)N(C)CCN1CCC(c2ccccc2)(N(C)C)CC1)c1c[nH]c2ccccc12 (centres unmarked) [Example 20, N-(2-(4-(Dimethylamino)-4-phenylpiperidin-1-yl)ethyl)-3-(1H-indol-3-yl)-N methylbutanamide] | 68 | 88 |
| CCCCC1(N(C)C)CCN(CCN(C)Cc2c[nH]c3ccc(Br)cc23)CC1 [Example 154, 1-(2-(((5-bromo-1H-indol-3-yl)methyl)(methyl)amino)ethyl)-4-butyl-N,N-dimethylpiperidin-4-amine] | 28 | 94 |
| CC(C)C(C(=O)N1CCC(c2ccccc2)(N(C)C)CC1)N(C)C(=O)CCc1cn(C)c2ccccc12 (centres unmarked) [Example 132, N-(1-(4-(dimethylamino)-4-phenylpiperidin-1-yl)-3-methyl-1-oxobutan-2-yl)-N-methyl-3-(1-methyl-1H-indol-3-yl)propanamide] | 34 | 63 |
| CN(CCN1CCC(c2ccccc2)(N2CCCC2)CC1)C(=O)Cc1c[nH]c2ccc(Br)cc12 [Example 62, 2-(5-Bromo-1H-indol-3-yl)-N-methyl-N-(2-(4-phenyl-4-(pyrrolidin-1-yl)piperidin-1-yl)ethyl)acetamide] | 14 | 57 |
| CN(C)C1(c2ccccc2)CCN(C(=O)C2CCCN(C(=O)c3cc4cc(F)ccc4[nH]3)C2)CC1 (centres unmarked) [Example 104, (4-(dimethylamino)-4-phenylpiperidin-1-yl)(1-(5-fluoro-1H-indole-2-carbonyl)piperidin-3-yl)methanone] | 64 | 89 |
| CN(CCN1CCC(c2ccccc2)(N(C)C)CC1)Cc1c(-c2ccc(F)cc2)[nH]c2ccccc12 [Example 70, 1-(2-(((2-(4-Fluorophenyl)-1H-indol-3-yl)methyl)(methyl)amino)ethyl)-N,N-dimethyl-4-phenylpiperidin-4-amine] | 80 | 98 |
| CN(C)C1(c2ccccc2)CCN(C(=O)CCNCc2ccc3cc[nH]c3c2)CC1 [Example 145, 3-((1H-indol-6-yl)methylamino)-1-(4-(dimethylamino)-4-phenylpiperidin-1-yl)propan-1-one] | 45 | 80 |
| CN(C)C1(c2ccccc2)CCN(C(=O)C2CN(C(=O)Cc3c[nH]c4cc(F)ccc34)c3ccccc32)CC1 (centres unmarked) [Example 86, 1-(3-(4-(dimethylamino)-4-phenylpiperidine-1-carbonyl)indolin-1-yl)-2-(6-fluoro-1H-indol-3-yl)ethanone] | 94 | 88 |
| CN(CCCN1CCC(c2ccccc2)(N(C)C)CC1)C(=O)c1ccc2ccn(C)c2c1 [Example 39, N-(3-(4-(Dimethylamino)-4-phenylpiperidin-1-yl)propyl)-N,1-dimethyl-1H-indole-6-carboxamide] | 32 | 76 |
| CN(C)C1(c2cccs2)CCN(C(=O)CC(NC(=O)C2CCCc3c2[nH]c2ccc(Cl)cc32)c2ccccc2)CC1 (centres unmarked) [Example 97, 6-chloro-N-(3-(4-(dimethylamino)-4-(thiophen-2-yl)piperidin-1-yl)-3-oxo-1-phenylpropyl)-2,3,4,9-tetrahydro-1H-carbazole-1-carboxamide] | 77 | 70 |
| CN(C)C1(c2ccccc2)CCN(C(=O)C2CCCN(C(=O)Cc3c[nH]c4cc(F)ccc34)C2)CC1 (centres unmarked) [Example 124, 1-(3-(4-(dimethylamino)-4-phenylpiperidine-1-carbonyl)piperidin-1-yl)-2-(6-fluoro-1H-indol-3-yl)ethanone] | 43 | 64 |
| CN(CCN1CCC(c2ccccc2)(N2CCCC2)CC1)C(=O)c1ccc2ccn(C)c2c1 [Example 37, N,1-Dimethyl-N-(2-(4-phenyl-4-(pyrrolidin-1-yl)piperidin-1-yl)ethyl)-1H-indole-6-carboxamide] | 16 | 47 |
| CN(C)C1(c2ccccc2)CCN(C(=O)C2CN(C(=O)c3ccc4ccn(C)c4c3)c3ccccc32)CC1 (centres unmarked) [Example 118, (4-(dimethylamino)-4-phenylpiperidin-1-yl)(1-(1-methyl-1H-indole-6-carbonyl)indolin-3-yl)methanone] | 46 | 97 |
| CN(C(=O)CCc1c[nH]c2ccccc12)C(C(=O)N1CCC(c2cccs2)(N(C)C)CC1)c1ccccc1 (centres unmarked) [Example 110, N-(2-(4-(dimethylamino)-4-(thiophen-2-yl)piperidin-1-yl)-2-oxo-1-phenylethyl)-3-(1H-indol-3-yl)-N-methylpropanamide] | 60 | 92 |
| CN(CCN1CCC(c2ccccc2)(N(C)C)CC1)C(=O)c1cccc2c1ccn2C [Example 31, N-(2-(4-(Dimethylamino)-4-phenylpiperidin-1-yl)ethyl)-N,1-dimethyl-1H-indole-4-carboxamide] | 35 | 88 |
| CN(CCN1CCC(c2ccccc2)(N(C)C)CC1)C(=O)CCc1c[nH]c2ccccc12 [Example 4, N-(2-(4-(Dimethylamino)-4-phenylpiperidin-1-yl)ethyl)-3-(1H-indol-3-yl)-N-methylpropanamide] | 86 | 93 |
| CN(C)C1(c2ccccc2)CCN(C(=O)CCNC(=O)CCc2c[nH]c3ccccc23)CC1 [Example 98, N-(3-(4-(dimethylamino)-4-phenylpiperidin-1-yl)-3-oxopropyl)-3-(1H-indol-3-yl)propanamide] | 73 | 85 |
| CC(C)C(CC(=O)N(C)C(C(=O)N1CCC(c2cccs2)(N(C)C)CC1)c1ccccc1)c1c[nH]c2ccccc12 (centres unmarked) [Example 105, N-(2-(4-(dimethylamino)-4-(thiophen-2-yl)piperidin-1-yl)-2-oxo-1-phenylethyl)-3-(1H-indol-3-yl)-N,4-dimethylpentanamide] | 63 | 91 |
| CN(CCN1CCC(c2ccccc2)(N(C)C)CC1)Cc1c[nH]c2ccc(Br)cc12 [Example 185, 1-(2-(((5-bromo-1H-indol-3-yl)methyl)(methyl)amino)ethyl)-N,N-dimethyl-4-phenylpiperidin-4-amine] | 91 | 95 |
| Cc1[nH]c2ccccc2c1CNCCC(=O)N1CCC(c2ccccc2)(N(C)C)CC1 [Example 167, 1-(4-(dimethylamino)-4-phenylpiperidin-1-yl)-3-((2-methyl-1H-indol-3-yl)methylamino)propan-1-one] | 65 | 86 |
| CN(CCCN1CCC(c2ccccc2)(N(C)C)CC1)C(=O)c1cc2cc(F)ccc2[nH]1 [Example 53, N-(3-(4-(Dimethylamino)-4-phenylpiperidin-1-yl)propyl)-5-fluoro-N-methyl-1H-indole-2-carboxamide] | 73 | 90 |
| CN(C)C1(c2cccs2)CCN(C(=O)CC(NCc2c[nH]c3ccccc23)c2ccccc2)CC1 (centres unmarked) [Example 164, 3-((1H-indol-3-yl)methylamino)-1-(4-(dimethylamino)-4-(thiophen-2-yl)piperidin-1-yl)-3-phenylpropan-1-one] | 82 | 96 |
| CN(C)C1(c2cccs2)CCN(CCNC(=O)C2CCCc3c2[nH]c2ccc(Cl)cc32)CC1 (centres unmarked) [Example 7, 6-Chloro-N-(2-(4-(dimethylamino)-4-(thiophen-2-yl)piperidin-1-yl)ethyl)-2,3,4,9-tetrahydro-1H-carbazole-1-carboxamide] | 62 | 95 |
| CN(C)C1(c2cccs2)CCN(CCNC(=O)CCc2c[nH]c3ccccc23)CC1 [Example 5, N-(2-(4-(Dimethylamino)-4-(thiophen-2-yl)piperidin-1-yl)ethyl)-3-(1H-indol-3-yl)propanamide] | 89 | 98 |
| CC(C)C(CC(=O)N(C)CCCN1CCC(c2ccccc2)(N(C)C)CC1)c1c[nH]c2ccccc12 (centres unmarked) [Example 34, N-(3-(4-(Dimethylamino)-4-phenylpiperidin-1-yl)propyl)-3-(1H-indol-3-yl)-N,4-dimethylpentanamide] | 43 | 88 |
